The record followed here is US20070219159A1, “CYCLODEXTRIN COMPOSITIONS AND METHODS OF TREATING VIRAL INFECTIONS” (priority 2002, published 2007).

The IC50 is the concentration needed to halve the response being measured. Low values mean greater potency in that assay, high ones weaker potency in that assay.

For data set [1], the system named is Vero cells. To be noted: 48 hours.
In data set [2] the test system is HSV-1. Briefly: HSV-1 plaque formation / IC50 study in Vero cells. Format: cell-based. The settings on record: for Plaques ± Std. Dev.: HSV-1 plaques per well, 48 hours.
[3] abbreviates: Human alphaherpesvirus 1, Vero, read-out: % of control ± SEM.

Values after ≈ are worked out from the molar mass of the structure shown. Read-outs that look alike come from different tables or passages of the source. Some results are limits rather than exact numbers.

For the compound `OC[C@H]1O[C@@H]2O[C@H]3[C@H](O)[C@@H](O)[C@@H](O[C@H]4[C@H](O)[C@@H](O)[C@@H](O[C@H]5[C@H](O)[C@@H](O)[C@@H](O[C@H]6[C@H](O)[C@@H](O)[C@@H](O[C@H]7[C@H](O)[C@@H](O)[C@@H](O[C@H]8[C@H](O)[C@@H](O)[C@@H](O[C@H]1[C@H](O)[C@H]2O)O[C@@H]8CO)O[C@@H]7CO)O[C@@H]6CO)O[C@@H]5CO)O[C@@H]4CO)O[C@@H]3CO` [BCD, β-cyclodextrin], the “cell viability (normalized to control cells)” value in data set [1] (5.5 mg/ml BCD) is reported as 91.23%; in data set [1] (7.2 mg/ml BCD) it was 84.89%. Also, the cytotoxicity in data set [1] (maximum concentration of BCD) is reported as under 15%. Besides, the “Plaques ± Std. Dev.” value in data set [2] (BCD 3.5 mg/ml) is reported as 119.0 ± 1.0; in data set [2] (BCD 4.0 mg/ml), 111.0 ± 6.6; in data set [2] (BCD 4.5 mg/ml), 84.0 ± 10.53; in data set [2] (BCD 5.0 mg/ml), 74.67 ± 4.51; in data set [2] (BCD 5.5 mg/ml), 54.67 ± 5.68; in data set [2] (BCD 6.0 mg/ml), under 10. Half-maximal inhibition in data set [2] (Human alphaherpesvirus 1, Vero, 48 h) (IC50) required 5100 µg/mL (≈ 4.49 mM). In addition, the activity at 3500 µg/mL in data set [2] (setting [3]) stood at 85.2 ± 0.58%. Also, the activity at 4000 µg/mL in data set [2] (setting [3]) was found to be 79.5 ± 3.8%. Besides, the activity at 4500 µg/mL in data set [2] (setting [3]) turned out to be 60.1 ± 6.08%. Further, the activity at 5000 µg/mL in data set [2] (setting [3]) turned out to be 53.5 ± 2.6%. In addition, the activity at 5500 µg/mL in data set [2] (setting [3]) stood at 39.1 ± 3.28%.
